Reference: publication PMC12689647, “Evaluation of bromadiolone combined with ciprofloxacin, vitamin D, aspirin, and cinnamon as an apoptosis-mediated rodenticide strategy” (Scientific Reports, 2025)
Like-named read-outs stand apart in the source and are kept apart here.

How the values were obtained:
liver DNA = assay type: in vivo, Rattus norvegicus; conditions: oral, 21 days
Description: (§1) Adult male rats (n = 7 × 9 = 63), weighing 150–200 g, were randomized and divided into seven groups. Group I served as the control. Group II received the vehicle control (0.1 ml/100 g ethanol). Group III was treated with bromadiolone (B) at ½ LD₅₀ (0.8 mg/kg)[28]. Group IV received bromadiolone (0.8 mg/kg) + ciprofloxacin (Anti.20 mg/kg)[29]. Group V received bromadiolone (0.8 mg/kg) + ciprofloxacin (20 mg/kg) + vitamin D (Vit. D 35 mg/kg)[30]. Group VI received bromadiolone (0.8 mg/kg) + ciprofloxacin (20 mg/kg) + vitamin D (35 mg/kg) + cinnamon (Cin. 2 g/kg)[31]. Group VII received bromadiolone (0.8 mg/kg) + ciprofloxacin (20 mg/kg) + vitamin D (35 mg/kg) + aspirin (A. 150 mg/kg)[32]. All doses were administered orally to wild rats over 21 days. The chemical we used for the euthanizing process: rats were narcotized by Ketamine + xylazine injection (IP) and then sacrificed by slaughtering.
For the coated slides, 100 µL of cell suspension was mixed with 600 µL of low-melting agarose (0.8% in PBS). The coated slides were immersed for 15 min in a lysis solution containing 2.5% sodium dodecyl sulfate (SDS) and 0.045 M Tris-borate-EDTA (TBE) buffer at pH 8.4. The slides were then placed in an electrophoresis chamber filled with TBE buffer without SDS. Electrophoresis was conducted at 100 mA for two minutes at 2 V/cm. Staining was performed at 4 °C using 20 µg/mL ethidium bromide (EtBr). EtBr-stained DNA was visualized using a fluorescent microscope with a 40× objective and an excitation filter of 420–490 nm to detect DNA damage. Qualitative and quantitative assessments of tail length, tail moment, olive tail moment, and percentage of DNA in the head were determined using OpenComet software to evaluate five images.

p53 = experiment: Immunohistochemical detection of p53 in liver sections; assay type: in vivo, Rattus norvegicus; conditions: liver immunohistochemistry; oral, 21 days
Description: as §1
Using xylene, paraffin-embedded tissues were deparaffinized and then rehydrated through a graded series of ethanol solutions. Antigen retrieval was performed by boiling the slides in 1 mM EDTA. The sections were then incubated in 3% H2O2 for ten minutes, washed with wash buffer (1X PBS) for five minutes, and blocked for one hour at room temperature. A 1:1000 dilution of the p53 primary antibody was then applied. […]

[1] = tested on: male wild rats of Rattus norvegicus; assay type: in vivo; conditions: oral, 8 treated, one week
liver of male wild rats = experiment: Hepatic lipid peroxidation (LPO) and reduced glutathione (GSH); assay type: in vivo, Rattus norvegicus; conditions: oral, 21 days
Description: as §1
Determination of ionized calcium, RBC count, Hb, and prothrombin time (PT) was conducted at a private biochemical laboratory in Assiut, Egypt, using a Genuri KT-6400 automatic hematology analyzer (China). ALT and AST activities in blood plasma were measured using specific kits (Boehringer Mannheim, Mannheim, Germany) according to the manufacturer’s instructions. […]. The concentration of reduced glutathione (GSH) was estimated based on[37] and measured using spectrophotometry.

[2] = tested on: male wild rats of Rattus norvegicus; assay type: in vivo; conditions: oral
p21 = experiment: Western blot of liver tissue, p21; assay type: in vivo, Rattus norvegicus; conditions: Western blot normalized to β-actin, oral, 21 days
Description: as §1
For the immunodetection and quantification of proteins such as p21 and cleaved caspase-3, markers of apoptotic cell death under various treatments, liver tissue was homogenized using RIPA lysis buffer. The samples were chopped and briefly sonicated on ice, and protein concentration was measured. Proteins (20 µg) were separated using SDS-PAGE and transferred to a nitrocellulose membrane. […] The optical densities of the bands were quantified and normalized to β-actin (1:5000) using ImageJ software.

## O=c1oc2ccccc2c(O)c1C(CC(O)c1ccc(-c2ccc(Br)cc2)cc1)c1ccccc1 (centres unmarked) [Bromadiolone]
Liver DNA; liver comet assay photomicrographs
  degree of liver DNA damage by comet assay: moderate amount of damaged DNA
Liver DNA; liver comet assay
  increase in olive tail moment (OTM) compared to the control: 710.02%
  increase in tail DNA% (T.DNA%) compared to the control: 222.35%
  increase in tail length (TL) compared to the control: 155.04%
  increase in tail moment (TM) compared to the control: 506.09%
p53
  increase in p53 levels compared to the control: 60.74%
  p53 immunoreactivity in liver sections: moderate brown immunoreactivity
[1]; dose 0.3 mg/kg b.w.
  Dead: 1
[1]; dose 0.6 mg/kg b.w.
  Dead: 2
[1]; dose 2.2 mg/kg b.w.
  Dead: 5
Liver of male wild rats; control 1.458 ± 0.1402
  LPO, Mean ± SE: 1.660 ± 0.1817 nmol/ mg protein
Liver of male wild rats; control 10.42 ± 0.4500
  GSH, Mean ± SE: 6.953 ± 0.1538 ng/mg protein
[2]; time 5 days
  Observed response %: 50%
[2]; time 6 days
  Observed response %: 62.5%
[2]; time 6 days, probit fit
  Linear probit: 5.4393
  Linear response %: 66.9788%
p21
  increase in p21 level compared to the control: 96.65%
